Experimental findings from paper PMC8001995, “Sea Anemone Kunitz-Type Peptides Demonstrate Neuroprotective Activity in the 6-Hydroxydopamine Induced Neurotoxicity Model” (Biomedicines, 2021) are described below.

Test [1] concerns Neuro-2a cells. Nature of the test: Intracellular ROS level, DCFH-DA probe, 6-OHDA-treated cells. The conditions noted are these: 25 µM 6-OHDA 30 min, no peptide. It is filed as cell-based, murine. As for the experimental part: (§1) Neuro-2a neuroblastoma cells (ATCC® CCL-131™) were obtained from American Type Culture Collection (Manassas, VA, USA). The cells were cultivated in DMEM medium (BioloT, St. Petersburg, Russia) supplemented with 10% of fetal bovine serum (BioloT, Russia) and 1% penicillin/streptomycin (BioloT, St. Petersburg, Russia) at 37 °C and 5% CO2. Initially, cells were incubated in cultural flasks until sub-confluent (~80%). For testing, Neuro-2a cells were seeded in 96-well plates and experiments were started after 24 h.
The level of intracellular ROS was measured using the ROS sensitive dye, 2,7-dichloro-fluorescein diacetate (DCFH-DA), as a probe. In brief, Neuro-2a cells were seeded in 96-well plates at 1 × 10^4 cells/well, culturing in the presence or absence of various concentrations of tested peptides for 1 h, and then 6-OHDA (25 µM) was added in each well for 30 min at 37 °C with 5% CO2. […] The fluorescence of 2,7-dichlorofluorescein (DCF) was detected with PHERAstar FS fluorescent plate reader (BMG Labtech, Ortenberg, Germany) at λex = 485 nm and λem = 518 nm. […] The cytoprotective effect of peptides and the increase in cell viability under their action was calculated as a percentage, taking the cell viability treated with 6-OHDA as 100%.

Test [2] relates to Neuro-2a cells. The test can be described thus: 6-Hydroxydopamine-induced cytotoxicity (neuroprotection), MTT. The conditions noted are these: 25 µM 6-OHDA 24 h, no peptide; versus control. Format: cell-based, murine. As for the experimental part: as §1
Neuro-2a cells were seeded at 1 × 10^4 cells/well in 96-well plates for studying of neuroprotective activity of peptides. The tested peptides were added to the cell monolayer and cells were incubated at 37 °C for 1 h. Then, the cells were exposed to 6-OHDA (Sigma-Aldrich, St. Louis, MO, USA) at 25 µM for 24 h at 37 °C with 5% CO2. Thereafter, the medium was replaced with clean serum-free medium, and the number of viable cells was determined by MTT assay. Neuro-2a cells were cultured without test compound or neurotoxins as the control group. Results were expressed in percentage of control as the mean ± SEM of three independent replicates.

Test [3] in a line: DPPH radical scavenging cell free assay. The conditions noted are these: 10 µM compound, 30 min, absorbance 520 nm, versus MeOH control, mean ± SEM of three independent replicates. Here is the method:
The 2,2-diphenyl-1-picryl-hydrazyl-hydrate (DPPH) radical scavenging activity was tested as described previously. The compound solutions (120 µL) were dispensed into wells of a 96-well microplate. The DPPH (Sigma-Aldrich, Germany) was dissolved in MeOH at concentration of 7.5 µM and the solution (30 µL) was added to each well. The concentrations of tested compounds in the mixtures were 10 µM. The mixtures were shaken and left for 30 min. The absorbance of the resulting solutions was measured at λ = 520 nm with a MultiscanFC plate reader (Thermo Fisher Scientific, Waltham, MA, USA). The scavenging of the DPPH radical in comparison with control (MeOH) (%) was calculated for each compound. Ascorbic acid at 10 µM was used as positive control.

Take `NCCc1cc(O)c(O)cc1O` [Peptide 6-OHDA, 6-hydroxydopamine]: in the test with Neuro-2a cells [1], the “ROS level in 6-OHDA-treated cells” value is “up to 130 % to the control level”. Moreover, the “Viability of Neuro-2a cells treated with 6-OHDA” value in the test on Neuro-2a cells [2] was 42.6%.

For `O=C1O[C@H]([C@@H](O)CO)C(O)=C1O` [Ascorbic acid], in test [3], the “Scavenging of DPPH Radicals” value was found to be 33.8 ± 2.4%.
